In article PMC9758846, “Dinuclear and mononuclear metal(II) polypyridyl complexes against drug-sensitive and drug-resistant Plasmodium falciparum and their mode of action” (Malaria Journal, 2022):
“And” between values parts separate entries of the source, which are not always exact repeats. Equal values may be shown once. Read-outs that look alike come from different tables or passages of the source.

Experiments:
[1] = system: Plasmodium falciparum 3D7 (Pf3D7); assay: In vitro anti-malarial activity using SYBR Green I nucleic acid dye; assay type: cell-based; conditions: 72 h incubation, read-out: IC50 of Pf3D7
Description: (§1) The drug-sensitive strain of P. falciparum 3D7 (Pf3D7) was obtained from the Department of Science, Monash University, Malaysia and cultured as previously described. The artemisinin-resistant strain of P. falciparum IPC5202 (Pf5202) was obtained from BEI Resources and cultured as mentioned in the product sheet. Both strains were maintained in sealed flask at 37 °C in a humidified atmosphere of 5% O2, 5% CO2 and 90% N2. All buffer stock solutions for biological assays were autoclaved at 121 °C for 15 min.
(§2) Previously reported anti-malarial assay was used with slight modification using 1% parasitaemia (ring-stage) and 5% haematocrit treated with test compounds at increasing concentration and incubated for 72 h at 37 °C [21–23]. After the incubation, the assay was terminated by freeze/thaw cycle (− 80 °C overnight before thawing for 2 h) before the addition of lysis buffer containing SYBR Green I dye into each well and mixed thoroughly using the belly dancer for 30 min in the dark. Chloroquine diphosphate salt and artemisinin were used as standard drugs. The fluorescence signal was quantified at 485 nm excitation wavelength and 528 nm emission wavelength. IC50 values of each test compound was determined from a dose response curve by non-linear regression analysis.

[2] = system: Plasmodium falciparum IPC5202 (Pf5202); assay: as above; assay type: cell-based; conditions: 72 h incubation, read-out: IC50 of Pf5202
Description: as §1, §2

[3] = system: B+ blood red blood cells (RBC); assay: In vitro haemolytic assay; assay type: cell-based, human; conditions: 72 h
Description: Fresh B+ blood was washed with RPMI1640 medium containing of 30 µg/mL gentamicin (Gibco) and centrifuged at 1000 xg for 10 min three times. The percentage of haemolysis was determined spectroscopically using 5% haematocrit containing test compound at increasing concentration and incubated for 72 h at 37 °C [19, 20]. Untreated blood acted as negative control while blood treated with sterile distilled water acted as positive control (for 100% haemolysis).

[4] = PNDA assay of •OH radicals from reaction with H2O2; conditions: for Concentration of •OH radical: 30 µM compound with excess H2O2; for Generation of ·OH radicals (in words): equimolar test compound with excess H2O2
Description: A previously reported spectrometric assay using PNDA was used to quantify the amount of reactive oxygen species (ROS), viz. •OH radicals, produced by the reaction of metal(II) complexes with hydrogen peroxide in borate buffer at pH 7.5 [24–26]. The percentage of PNDA bleaching and the concentration of •OH produced were determined.

[5] = target: Pf3D7 20S proteasome caspase-like (C-L) site (Plasmodium falciparum, UniProt Q8I0U7); assay: 20S proteasome inhibition assay using parasite lysate; assay type: biochemical; conditions: Suc-LLE-AMC, 30 min
Chain of Pf3D7 20S proteasome caspase-like (C-L) site (Q8I6T3 entry or part of it): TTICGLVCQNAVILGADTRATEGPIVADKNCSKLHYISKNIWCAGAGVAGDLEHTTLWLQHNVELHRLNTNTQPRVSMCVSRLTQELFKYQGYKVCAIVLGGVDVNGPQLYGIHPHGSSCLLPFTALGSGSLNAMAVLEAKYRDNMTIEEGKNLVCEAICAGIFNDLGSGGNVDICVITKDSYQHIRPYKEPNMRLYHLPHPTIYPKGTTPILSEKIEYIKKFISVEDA
Chain of Pf3D7 20S proteasome caspase-like (C-L) site (Q8I0U7 entry or part of it): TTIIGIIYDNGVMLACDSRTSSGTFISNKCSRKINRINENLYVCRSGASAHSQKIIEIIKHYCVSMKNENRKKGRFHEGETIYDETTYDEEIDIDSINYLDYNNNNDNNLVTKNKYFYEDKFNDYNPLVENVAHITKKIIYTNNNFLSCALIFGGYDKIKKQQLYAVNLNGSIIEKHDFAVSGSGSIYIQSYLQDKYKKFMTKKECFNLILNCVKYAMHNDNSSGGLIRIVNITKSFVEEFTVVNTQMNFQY
Description: (§3) To harvest P. falciparum parasites, intraerythrocytic Pf3D7 and Pf5202 were collected in trophozoite and early schizont stages. Red blood cells were lysed in 0.15% (w/v) saponin lysis buffer for 10 min at 37 °C. After lysis, the parasite pellet was washed once with PBS buffer by centrifuging at 1600 rpm for 5 min. Saponin lysis buffer was added once again to remove all the red blood cells for 10 min at 37 °C, followed by washing with PBS twice and immediately used or kept at − 80 °C. To prepare parasite lysates for proteasome purification, parasite pellet was resuspended with 100 µl of pre-cooled Pierce™ RIPA buffer. A mild protein extraction method was used to prepare parasite extracts. The resuspended parasites were passed 20 times through a needle with a diameter of 0.4 mm in a syringe on ice to lyse the parasite. After 15 min centrifugation at 13,000 xg at 4 °C, the supernatant was removed. Protein concentration was determined by the Bradford assay. The activities of 3 proteolytic sites were determined by fluorescence assay using fluorogenic peptide substrates (Suc-LLVY-AMC for chymotrypsin-like, Boc-LRR-AMC for trypsin-like and Suc-LLE-AMC for caspase-like) Proteasome activities were determined by monitoring the substrate hydrolysis for 30 min at 37 °C with 340 nm excitation and 465 nm emission wavelength. Activity of each proteolytic site were calculated, and the IC50 values were determined from the non-linear regression analysis. VR23 proteasome inhibitor was used as positive control.

[6] = target: Pf3D7 20S proteasome chymotrypsin-like (CT-L) site (Plasmodium falciparum, UniProt Q8IJT1); assay: as above; assay type: biochemical; conditions: Suc-LLVY-AMC, 30 min
Chain of Pf3D7 20S proteasome chymotrypsin-like (CT-L) site (Q8IJT1 entry or part of it): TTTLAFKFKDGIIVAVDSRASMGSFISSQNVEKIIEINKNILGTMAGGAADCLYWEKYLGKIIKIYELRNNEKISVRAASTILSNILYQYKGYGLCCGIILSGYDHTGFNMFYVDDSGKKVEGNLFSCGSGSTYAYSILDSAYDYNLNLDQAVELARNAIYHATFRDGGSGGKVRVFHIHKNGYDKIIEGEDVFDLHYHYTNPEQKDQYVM
Description: as §3

[7] = target: Pf3D7 20S proteasome trypsin-like (T-L) site (Plasmodium falciparum, UniProt Q8I6T3); assay: as above; assay type: biochemical; conditions: Boc-LRR-AMC, 30 min
Chain of Pf3D7 20S proteasome trypsin-like (T-L) site (Q8I6T3 entry or part of it): as the sequence (Q8I6T3 entry or part of it) above
Description: as §3

[8] = target: Pf5202 20S proteasome caspase-like (C-L) site (Plasmodium falciparum, UniProt Q8I0U7); assay: as above; assay type: biochemical; conditions: Suc-LLE-AMC, 30 min
Chain of Pf5202 20S proteasome caspase-like (C-L) site (Q8I0U7 entry or part of it): as the sequence (Q8I0U7 entry or part of it) above
Chain of Pf5202 20S proteasome caspase-like (C-L) site (Q8I6T3 entry or part of it, further chain): as the sequence (Q8I6T3 entry or part of it) above
Description: as §3

[9] = target: Pf5202 20S proteasome chymotrypsin-like (CT-L) site (Plasmodium falciparum, UniProt Q8IJT1); assay: as above; assay type: biochemical; conditions: Suc-LLVY-AMC, 30 min
Chain of Pf5202 20S proteasome chymotrypsin-like (CT-L) site (Q8IJT1 entry or part of it): as the sequence (Q8IJT1 entry or part of it) above
Description: as §3

[10] = target: Pf5202 20S proteasome trypsin-like (T-L) site (Plasmodium falciparum, UniProt Q8I6T3); assay: as above; assay type: biochemical; conditions: for IC50: parasite lysate, Boc-LRR-AMC, 30 min
Chain of Pf5202 20S proteasome trypsin-like (T-L) site (Q8I6T3 entry or part of it): as the sequence (Q8I6T3 entry or part of it) above
Description: as §3

Pf3D7 = assay: Intracellular ROS level using DCFH-DA; assay type: cell-based, Plasmodium falciparum
Description: (§4) After incubation, packed cells were washed with phosphate buffer saline (PBS) solution. […] The data was expressed as fold change between amount of ROS produced by treated P. falciparum against untreated P. falciparum. Normalization was done with the percentage of parasite viability obtained at each condition. Hydrogen peroxide was used as positive control.

Pf5202 = assay: Intracellular ROS level using DCFH-DA; assay type: cell-based, Plasmodium falciparum
Description: as §4

Molecule | IC50 [1] | IC50 [2] [µM] | Concentration of •OH radical ([4]; 24 h) [µM] | Concentration of •OH radical ([4]; 48 h) [µM] | Concentration of •OH radical ([4]; 72 h) [µM] | IC50 [5] [µM] | IC50 [6] [µM] | IC50 [7] [µM] | IC50 [8] [µM] | IC50 [9] [µM] | IC50 [10] [µM] | Generation of ·OH radicals (in words) [4] | fold change in ROS (Pf3D7; 48 h, 0.2 µM) [fold] | fold change in ROS (Pf3D7; 48 h, 1.0 µM) [fold] | fold change in ROS (Pf3D7; 48 h, 5.0 µM) [fold] | fold change in ROS (Pf3D7; 48 h, 25.0 µM) [fold] | fold change in ROS (Pf5202; 24 h, 1.0 µM) [fold] | fold change in ROS (Pf5202; 48 h, 5.0 µM) [fold] | fold change in ROS (Pf5202; 48 h, 25.0 µM) [fold] | fold change in ROS (Pf5202; 72 h, 1.0 µM) [fold] | other results
O.O.O.O=[N+]([O-])[O-].O=[N+]([O-])[O-].[Cu+2] [Cu(NO3)2·3H2O, Copper(II) nitrate trihydrate, reference compound] | 46.1 ± 4.29 µM | 49.4 ± 2.3 | 36.29 ± 1.80 | 33.20 ± 1.62 | 29.82 ± 1.60 | – | – | – | – | – | – | – | – | – | – | – | – | – | – | – | IC50 ([1]; listed as copper(II) nitrate): ~46 µM; IC50 ([2]; listed as copper(II) nitrate): ~49 µM; Percentage of haemolysis (haemolytic index, HI) ([3]; 1 µM, B+ blood): 3%; Concentration of •OH radical ([4]; 2 h): 14.59 ± 2.39 µM; Concentration of •OH radical ([4]; 4 h): 19.27 ± 2.36 µM
O=[N+]([O-])c1ccc(S(=O)(=O)N2CCN(c3ccnc4cc(Cl)ccc34)CC2)c([N+](=O)[O-])c1 [VR23, reference compound] | – | – | – | – | – | > 5 | > 5 | 0.78 ± 0.11 | > 5 | > 5 | 0.86 ± 0.09 | – | – | – | – | – | – | – | – | – | –
O.O.O.O.O.O.O=[N+]([O-])[O-].O=[N+]([O-])[O-].[Zn+2] [Zn(NO3)2·6H2O, Zinc(II) nitrate hexahydrate] | > 100 µM | > 100 | – | – | – | – | – | – | – | – | – | did not generate any ·OH radicals | – | – | – | – | – | – | – | – | –
c1cnc2c(c1)ccc1cccnc12 [phen, 1,10-phenanthroline, reference compound] | – | – | 0.15 ± 0.07 | 0.36 ± 0.17 | 0.30 ± 0.23 | > 25 | – | 4.47 ± 0.6 | – | – | 1.79 ± 0.66 | did not generate any ·OH radicals | 3.10 ± 0.98 | 2.91 ± 0.05 | 4.47 ± 0.71 | 6.09 ± 0.91 | 1.08 ± 0.09 | 1.40 ± 0.13 | 1.32 ± 0.31 | 1.17 ± 0.44 | IC50 ([1]; Plasmodium falciparum, 3D7): 4.27 ± 0.05 µM; IC50 ([2]; Plasmodium falciparum): > 100 µM; fold change in ROS (Pf5202; 24 h, 0.2 µM): 1.06 ± 0.06 fold; fold change in ROS (Pf5202; 24 h, 5.0 µM): 0.91 ± 0.05 fold; fold change in ROS (Pf5202; 24 h, 25.0 µM): 0.80 ± 0.04 fold; fold change in ROS (Pf5202; 48 h, 0.2 µM): 1.78 ± 0.78 fold; fold change in ROS (Pf5202; 48 h, 1.0 µM): 1.31 ± 0.21 fold; fold change in ROS (Pf5202; 72 h, 0.2 µM): 1.35 ± 0.71 fold; fold change in ROS (Pf5202; 72 h, 5.0 µM): 1.08 ± 0.51 fold; fold change in ROS (Pf5202; 72 h, 25.0 µM): 1.21 ± 1.25 fold; Factor by which T-L site of Pf5202 is inhibited better than that of Pf3D7 ([10]; ratio of T-L IC50 values): about 2.5 ×
[Zn(phen)(NO3)-4,4′-bipy-Zn(phen)(NO3)](NO3)2·2H2O [Complex 4] | 3.9 µM and 3.93 µM | > 100 | – | – | – | > 25 | > 25 | > 25 | > 25 | > 25 | > 25 | did not generate any ·OH radicals | 0.52 ± 0.26 | 0.77 ± 0.58 | 0.85 ± 0.40 | 0.42 ± 0.19 | 0.44 ± 0.25 | 0.43 ± 0.09 | 0.39 ± 0.36 | 0.45 ± 0.32 | Haemolysis on B+ blood (in words) ([3]; up to 25 µM): no haemolysis; fold change in ROS (Pf3D7; 24 h, 25.0 µM): 0.31 ± 0.31 fold; fold change in ROS (Pf3D7; 72 h, 0.2 µM): 1.52 ± 0.07 fold; fold change in ROS (Pf3D7; 72 h, 1.0 µM): 1.52 ± 0.14 fold; fold change in ROS (Pf3D7; 72 h, 5.0 µM): 1.85 ± 0.27 fold; fold change in ROS (Pf3D7; 72 h, 25.0 µM): 1.19 ± 0.57 fold; fold change in ROS (Pf5202; 72 h, 5.0 µM): 0.33 ± 0.01 fold; fold change in ROS (Pf5202; 72 h, 25.0 µM): 0.13 ± 0.05 fold
